From PubChem BioAssay (NCI)
“And” between values parts separate entries of the source, which are not always exact repeats. Identical values can stand only once.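 Briefly, cells in 96-well plates were exposed to five compound concentrations for 48 h, and endpoints were estimated by linear interpolation. GI50 marks 50% less growth. TGI denotes the concentration required for complete inhibition of growth.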

How the values were obtained:
Experiment in all cases: inhibition of tumour cell growth, NCI panel, 48 h
[1] = test system: NCI-H522 lung
[2] = test system: PC-3 prostate
[3] = test system: KM12 colon
[4] = test system: SF-268 CNS
[5] = test system: COLO 205 colon
[6] = test system: HCT-15 colon
[7] = test system: HOP-62 NSCLC
[8] = test system: UACC-62 melanoma
[9] = test system: ACHN renal
[10] = test system: NCI-H460 lung

SMILES	GI50 [1]	TGI [1]	GI50 [2]	TGI [2]	TGI [3]	GI50 [4]	TGI [4]	GI50 [5] [µM]	TGI [5]	GI50 [6]	TGI [6] [µM]	GI50 [7]	TGI [7]	GI50 [8]	TGI [8]	GI50 [9] [µM]	TGI [9]	GI50 [10] [µM]	TGI [10]	GI50 [3]
Cn1cc(-c2ccc3c(c2)ncn3-c2ccc(CC(=O)Nc3cc(C(C)(C)C)on3)cc2)cn1	2.27 µM	13.9 µM	2.78 µM	> 74.7 µM	14.3 µM	0.674 µM	> 46.5 µM	1.95	5.24 µM	1.19 µM	> 40.9	1.41 µM	29.4 µM	1.53 µM	11.6 µM	0.405	10.9 µM	2.45	> 37.7 µM	
C/C(=N\NC(=S)Nc1ccccc1)c1ccccn1	0.207 µM	1.61 µM	< 0.0171 µM	5.73 µM	2.29 µM	0.205 µM	5.17 µM	0.0119	1.48 µM	0.0338 µM	13.2	0.0708 µM	3.61 µM	0.264 µM	2.96 µM	0.0335	3.75 µM	0.0692	3.74 µM	0.143 µM
COc1ccc(C2=NN(c3ccc(S(N)(=O)=O)cc3)C(c3ccc(Cl)cc3)C2)c(O)c1 (centres undefined)	2.42 µM	11.1 µM	2.78 µM	14.6 µM	7.91 µM	5.7 µM	25.5 µM	3.59	13.3 µM	2.98 µM	13.9	9.35 µM	28.5 µM	5.89 µM	19.7 µM	3.58	50.6 µM	2.31	6.08 µM	2.67 µM
CN(C)CC1CCCC(CN(C)C)C1=O (centres undefined)	0.179 µM and 1.06 µM	0.443 µM and 3.46 µM	18.7 µM and 4.98 µM	33.4 µM and 16.9 µM	16.9 µM and 33.3 µM	11.5 µM and 23.4 µM	31.7 µM and 65.6 µM		3.4 µM and 9.47 µM	1.28 µM and 8.54 µM		> 73.1 µM and 20.8 µM	> 90.6 µM and 43 µM	8.32 µM and 18 µM	18.3 µM and 33.4 µM		2.92 µM and 3.52 µM		38.5 µM and 33.8 µM	6.05 µM and 17.2 µM
C=C(CNCCc1ccc(O)cc1)[C@@H]1CC[C@]2(CO)CC[C@]3(C)[C@H](CC[C@@H]4[C@@]5(C)CCC(NCCO)C(C)(C)[C@@H]5CC[C@]43C)[C@@H]12 (some centres undefined)	1.81 µM	3.56 µM	1.6 µM	3.29 µM	3.16 µM	1.57 µM	3.23 µM	1.54	3.13 µM	1.57 µM	3.37	1.64 µM	3.23 µM	1.79 µM	3.3 µM	1.79	3.2 µM	1.75	3.29 µM	1.66 µM
O=C(NCCS(=O)(=O)N1C(=O)C2CCCN2C(=O)[C@@H]1Cc1ccccc1)OCc1ccccc1 (some centres undefined)		> 100 µM			> 100 µM		> 100 µM		58.4 µM		> 100		> 100 µM		> 100 µM		> 100 µM		> 100 µM	
